This is an account of results in US20240270750A1, “IMIDAZOLE-CONTAINING INHIBITORS OF ALK2 KINASE” (BioCryst Pharmaceuticals, Inc., priority 2021, published 2024).

Each structure is given as a SMILES string. Bounds are passed on as bounds.

In the assay the target is T1, ALK2 (Homo sapiens, UniProt Q04771).
T1 construct: purchased ThermoFisher Scientific (Life Technologies)
T1 sequence (Q04771 21-509): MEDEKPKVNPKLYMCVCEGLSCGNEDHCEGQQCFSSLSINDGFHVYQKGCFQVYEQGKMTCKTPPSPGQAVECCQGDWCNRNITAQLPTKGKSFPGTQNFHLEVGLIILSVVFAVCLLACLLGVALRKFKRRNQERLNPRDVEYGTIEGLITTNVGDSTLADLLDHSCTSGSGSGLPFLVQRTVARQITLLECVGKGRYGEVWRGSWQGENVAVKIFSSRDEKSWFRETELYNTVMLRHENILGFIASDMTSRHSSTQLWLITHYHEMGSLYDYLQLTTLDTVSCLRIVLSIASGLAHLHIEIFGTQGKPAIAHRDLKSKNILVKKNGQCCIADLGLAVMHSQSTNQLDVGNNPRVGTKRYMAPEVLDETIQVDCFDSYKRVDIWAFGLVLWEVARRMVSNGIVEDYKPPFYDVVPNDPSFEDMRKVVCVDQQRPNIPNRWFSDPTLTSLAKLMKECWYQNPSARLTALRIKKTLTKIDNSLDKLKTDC
As to the kind of experiment: LanthaScreen Eu Kinase Binding Assay, ALK2 inhibition. Conditions: 1 micromolar concentration. The method, then: Biochemical assays to measure the inhibitory effects of the compounds were performed by ThermoFisher Scientific (Life Technologies). ALK2 inhibition was tested using LanthaScreen™ Eu Kinase Binding Assay screening protocol.
A general note: Time-resolved FRET reads energy transfer from a long-lived donor to a nearby acceptor.

Broadly, the inhibition is how much of the control response was suppressed. A lower inhibition goes with little suppression. `COc1cc(-n2cnc(Nc3nc(CC4CC4)nc4c3cnn4CC3CC3)c2)cc(OC)c1OC` [Compound 121f, 1,6-bis(cyclopropylmethyl)-N-(1-(3,4,5-trimethoxyphenyl)-1H-imidazol-4-yl)-1H-pyrazolo[3,4-d]pyrimidin-4-amine] yielded an inhibition at 1 µM greater than 50%.

As to `C=C(C)c1nc(Nc2cn(-c3cc(OC)c(OC)c(OC)c3)cn2)c2ccsc2n1` [Compound 80c, 2-(prop-1-en-2-yl)-N-(1-(3,4,5-trimethoxyphenyl)-1H-imidazol-4-yl)thieno[2,3-d]pyrimidin-4-amine], the inhibition at 1 µM is greater than 50%.

Regarding `C=C(C)c1nc2c(c(Nc3cn(-c4cc(OC)c(OC)c(OC)c4)cn3)n1)CCN(C(=O)OC(C)(C)C)C2` [Compound 76c, tert-butyl 2-(prop-1-en-2-yl)-4-((1-(3,4,5-trimethoxyphenyl)-1H-imidazol-4-yl)amino)-5,6-dihydropyrido[3,4-d]pyrimidine-7 (8H)-carboxylate], the inhibition at 1 µM is less than 50%.

On to `COc1cc(-n2cnc(Nc3nc(C(C)(C)C)c4cnn(C(C)C)c4n3)c2)cc(OC)c1OC` [Compound 9b, 4-(tert-butyl)-1-isopropyl-N-(1-(3,4,5-trimethoxyphenyl)-1H-imidazol-4-yl)-1H-pyrazolo[3,4-d]pyrimidin-6-amine], for which the inhibition at 1 µM is greater than 50%.

Regarding `COc1cc(-n2cnc(Nc3nc(CC4CC4)nc4c3cnn4CC(C)C)c2)cc(OC)c1OC` [Compound 126e, 6-(cyclopropylmethyl)-1-isobutyl-N-(1-(3,4,5-trimethoxyphenyl)-1H-imidazol-4-yl)-1H-pyrazolo[3,4-d]pyrimidin-4-amine], the inhibition at 1 µM is greater than 50%.

Turning to `C=C(C)c1nc(Nc2cn(-c3cc(OC)c(OC)c(OC)c3)cn2)c2ccn(C(C)C)c2n1` [Compound 97c, 7-isopropyl-2-(prop-1-en-2-yl)-N-(1-(3,4,5-trimethoxyphenyl)-1H-imidazol-4-yl)-7H-pyrrolo[2,3-d]pyrimidin-4-amine], the inhibition at 1 µM was greater than 50%.

In turn, `C=C(C)c1nc2c(c(Nc3cn(-c4cc(OC)c(OC)c(OC)c4)cn3)n1)COC2` [Compound 71c, 2-(prop-1-en-2-yl)-N-(1-(3,4,5-trimethoxyphenyl)-1H-imidazol-4-yl)-5,7-dihydrofuro[3,4-d]pyrimidin-4-amine] gave an inhibition at 1 µM greater than 50%.

For the compound `C=C(C)c1nc(Nc2cn(-c3cc(OC)c(OC)c(OC)c3)cn2)nc2ccsc12` [Compound 53c, 4-(prop-1-en-2-yl)-N-(1-(3,4,5-trimethoxyphenyl)-1H-imidazol-4-yl)thieno[3,2-d]pyrimidin-2-amine], the inhibition at 1 µM is greater than 50%.

In the case of `CCOC(=O)CC(C)c1nc(Nc2cn(-c3cc(OC)c(OC)c(OC)c3)cn2)c2cnn(C(C)C)c2n1` (stereo not shown) [Compound 103c, ethyl 3-(1-isopropyl-4-((1-(3,4,5-trimethoxyphenyl)-1H-imidazol-4-yl)amino)-1H-pyrazolo[3,4-d]pyrimidin-6-yl)butanoate], the inhibition at 1 µM is greater than 50%.

Consider `COc1cc(-n2cnc(Nc3nc(C(C)C)nc4c3cnn4-c3ccc(F)cc3F)c2)cc(OC)c1OC` [Compound 42d, 1-(2,4-difluorophenyl)-6-isopropyl-N-(1-(3,4,5-trimethoxyphenyl)-1H-imidazol-4-yl)-1H-pyrazolo[3,4-d]pyrimidin-4-amine], for which the inhibition at 1 µM was greater than 50%.

The compound `CCn1ncc2c(Nc3cn(-c4cc(OC)c(OC)c(OC)c4)cn3)nc(C3CC3)nc21` [Compound 113d, 6-cyclopropyl-1-ethyl-N-(1-(3,4,5-trimethoxyphenyl)-1H-imidazol-4-yl)-1H-pyrazolo[3,4-d]pyrimidin-4-amine] registered an inhibition at 1 µM greater than 50%.

The compound `COc1cc(-n2cnc(Nc3nc(C(F)(F)F)nc4c3cnn4C(C)C)c2)cc(OC)c1OC` [Compound 26a, 1-isopropyl-6-(trifluoromethyl)-N-(1-(3,4,5-trimethoxyphenyl)-1H-imidazol-4-yl)-1H-pyrazolo[3,4-d]pyrimidin-4-amine] had an inhibition at 1 µM greater than 50%.

`COc1cc(-n2cnc(Nc3nc(C(C)C)nc4c3CCN(C(=O)OC(C)(C)C)C4)c2)cc(OC)c1OC` [Compound 77a, tert-butyl 2-isopropyl-4-((1-(3,4,5-trimethoxyphenyl)-1H-imidazol-4-yl)amino)-5,6-dihydropyrido[3,4-d]pyrimidine-7 (8H)-carboxylate] gave an inhibition at 1 µM greater than 50%.

Consider `COc1cc(-n2cnc(Nc3nc(C(C)C)nc4c3cnn4C3CC3)c2)cc(OC)c1OC` [Compound 14f, 1-cyclopropyl-6-isopropyl-N-(1-(3,4,5-trimethoxyphenyl)-1H-imidazol-4-yl)-1H-pyrazolo[3,4-d]pyrimidin-4-amine], for which the inhibition at 1 µM was greater than 50%.

Compound `CNC(=O)CC(C)c1nc(Nc2cn(-c3cc(OC)c(OC)c(OC)c3)cn2)c2cnn(C(C)C)c2n1` (stereo not shown) [Compound 108a, 3-(1-isopropyl-4-((1-(3,4,5-trimethoxyphenyl)-1H-imidazol-4-yl)amino)-1H-pyrazolo[3,4-d]pyrimidin-6-yl)-N-methylbutanamide] displayed an inhibition at 1 µM greater than 50%.

Turning to `COc1cc(-n2cnc(Nc3nc(C4=CCN(C)CC4)nc4c3cnn4C(C)C)c2)cc(OC)c1OC` [Compound 38b, 1-isopropyl-6-(1-methyl-1,2,3,6-tetrahydropyridin-4-yl)-N-(1-(3,4,5-trimethoxyphenyl)-1H-imidazol-4-yl)-1H-pyrazolo[3,4-d]pyrimidin-4-amine], the inhibition at 1 µM was greater than 50%.

`COc1cc(-n2cnc(Nc3nc(C(C)C)nc4c3cnn4-c3ccc(F)cc3)c2)cc(OC)c1OC` [Compound 1f, 1-(4-fluorophenyl)-6-isopropyl-N-(1-(3,4,5-trimethoxyphenyl)-1H-imidazol-4-yl)-1H-pyrazolo[3,4-d]pyrimidin-4-amine]: the inhibition at 1 µM was greater than 50%.

`COc1cc(-n2cnc(Nc3nc(C(C)C)nc4c3cnn4C3CCCC3)c2)cc(OC)c1OC` [Compound 18c, 1-cyclopentyl-6-isopropyl-N-(1-(3,4,5-trimethoxyphenyl)-1H-imidazol-4-yl)-1H-pyrazolo[3,4-d]pyrimidin-4-amine] displayed an inhibition at 1 µM greater than 50%.

Compound `COc1cc(-n2cnc(NC3=NC(C(C)C)=NC4C=COC34)c2)cc(OC)c1OC` (stereo not shown) [Compound 105a, 2-isopropyl-N-(1-(3,4,5-trimethoxyphenyl)-1H-imidazol-4-yl)-4a,7a-dihydrofuro[3,2-d]pyrimidin-4-amine] yielded an inhibition at 1 µM greater than 50%.

In the case of `COc1cc(-n2cnc(Nc3nc(C(C)C)nc4ccc(F)cc34)c2)cc(OC)c1OC` [Compound 99a, 6-fluoro-2-isopropyl-N-(1-(3,4,5-trimethoxyphenyl)-1H-imidazol-4-yl)quinazolin-4-amine], the inhibition at 1 µM is greater than 50%.

In turn, `COc1cc(-n2cnc(Nc3nc(CC4CC4)nc4c3cnn4C34CC(C3)C4)c2)cc(OC)c1OC` [Compound 123e, 1-(bicyclo[1.1.1]pentan-1-yl)-6-(cyclopropylmethyl)-N-(1-(3,4,5-trimethoxyphenyl)-1H-imidazol-4-yl)-1H-pyrazolo[3,4-d]pyrimidin-4-amine] registered an inhibition at 1 µM greater than 50%.

In the case of `COc1cc(-n2cnc(Nc3nc(C(C)(C)C)nc4c3cnn4C(C)C)c2)cc(OC)c1OC` [Compound 32d, 6-(tert-butyl)-1-isopropyl-N-(1-(3,4,5-trimethoxyphenyl)-1H-imidazol-4-yl)-1H-pyrazolo[3,4-d]pyrimidin-4-amine], the inhibition at 1 µM was greater than 50%.
